Measurements as given in the NIST ThermoML archive (doi:10.1021/je400178k).
Numbers after ± are expanded uncertainties.

Assay: molar heat capacity at constant pressure
Settings: 101 kPa, Liquid, Small sample (50 mg) DSC

molar heat capacity at constant pressure (298.15 K)	molar heat capacity at constant pressure (303.15 K)	molar heat capacity at constant pressure (308.15 K)	molar heat capacity at constant pressure (313.15 K)	molar heat capacity at constant pressure (318.15 K)	molar heat capacity at constant pressure (323.15 K)	molar heat capacity at constant pressure (328.15 K)	molar heat capacity at constant pressure (333.15 K)	molar heat capacity at constant pressure (338.15 K)	molar heat capacity at constant pressure (343.15 K)	molar heat capacity at constant pressure (348.15 K)	molar heat capacity at constant pressure (353.15 K)	Compound
263.9 ± 4.2 J/K/mol	265.3 ± 4.3 J/K/mol	267.1 ± 4.3 J/K/mol	269.2 ± 4.3 J/K/mol	270.8 ± 4.3 J/K/mol	272.6 ± 4.3 J/K/mol	274.3 ± 4.4 J/K/mol	276.2 ± 4.4 J/K/mol	278.7 ± 4.4 J/K/mol	281 ± 4.4 J/K/mol	283.2 ± 4.5 J/K/mol	284.9 ± 4.5 J/K/mol	OCCN1CCOCC1 [4-morpholineethanol]
296.2 ± 4.6 J/K/mol	298.2 ± 4.7 J/K/mol	299.6 ± 4.7 J/K/mol	301.2 ± 4.7 J/K/mol	302.8 ± 4.7 J/K/mol	304.5 ± 4.7 J/K/mol	306.1 ± 4.8 J/K/mol	307.9 ± 4.8 J/K/mol	309.6 ± 4.8 J/K/mol	311.3 ± 4.8 J/K/mol	312.7 ± 4.9 J/K/mol	313.4 ± 4.9 J/K/mol	NCCCN1CCOCC1 [N-(3-aminopropyl)morpholine]

The next lines start with the molecule.

Compound	molar heat capacity at constant pressure (298.15 K)	molar heat capacity at constant pressure (303.15 K)	molar heat capacity at constant pressure (308.15 K)	molar heat capacity at constant pressure (313.15 K)	molar heat capacity at constant pressure (318.15 K)	molar heat capacity at constant pressure (323.15 K)	molar heat capacity at constant pressure (328.15 K)	molar heat capacity at constant pressure (333.15 K)	molar heat capacity at constant pressure (338.15 K)	molar heat capacity at constant pressure (343.15 K)	molar heat capacity at constant pressure (348.15 K)	molar heat capacity at constant pressure (353.15 K)
CN1CCN(C)CC1 [1,4-dimethylpiperazine]	216.5 ± 3.7 J/K/mol	221.7 ± 3.7 J/K/mol	222.1 ± 3.7 J/K/mol	223.4 ± 3.7 J/K/mol	224.6 ± 3.8 J/K/mol	225.3 ± 3.8 J/K/mol	225.7 ± 3.8 J/K/mol	227.5 ± 3.8 J/K/mol	228.5 ± 3.8 J/K/mol	229.6 ± 3.8 J/K/mol	231.7 ± 3.8 J/K/mol	235.9 ± 3.9 J/K/mol
OCCN1CCNCC1 [N-(2-hydroxyethyl)piperazine]	285 ± 4.5 J/K/mol	289.9 ± 4.6 J/K/mol	292.9 ± 4.6 J/K/mol	296 ± 4.6 J/K/mol	298.9 ± 4.7 J/K/mol	301.7 ± 4.7 J/K/mol	305 ± 4.8 J/K/mol	308.1 ± 4.8 J/K/mol	311 ± 4.8 J/K/mol	313.9 ± 4.9 J/K/mol	316.5 ± 4.9 J/K/mol	319 ± 4.9 J/K/mol
CN1CCNCC1 [N-methylpiperazine]	213.9 ± 3.6 J/K/mol	214.4 ± 3.6 J/K/mol	215 ± 3.6 J/K/mol	215.7 ± 3.6 J/K/mol	216.4 ± 3.7 J/K/mol	216.9 ± 3.7 J/K/mol	217.3 ± 3.7 J/K/mol	217.2 ± 3.7 J/K/mol	215.5 ± 3.6 J/K/mol	216.2 ± 3.7 J/K/mol	217.6 ± 3.7 J/K/mol	218 ± 3.7 J/K/mol
